Results on 16 compounds are retold here after ChEMBL document CHEMBL3734739, “Synthesis and biological evaluation of novel derivatives of gambogenic acid as anticancer agents” (Medchemcomm, 2015).

pIC50: −log10 of the molar value. Active and inactive are the calls of the source. The rule behind the calls is not given here.

The subject of one experiment is A549. Put plainly: Cytotoxicity against human A549 cells by MTT assay. Format: functional, cell-based.
The test system of experiment [1] is HepG2. Put plainly: Cytotoxicity against human HepG2 cells by MTT assay. Type of experiment: functional, cell-based.
The nature of experiment [2]: Cytotoxicity against human PANC1 cells by MTT assay. Format: functional, cell-based. Conditions: PANC-1.
Another experiment concerns U-251. Put plainly: Cytotoxicity against human U251 cells by MTT assay. Format: functional, cell-based.
For experiment [3], the system named is HepG2. Briefly: Induction of apoptosis in human HepG2 cells at […] to 1.25 uM after 48 hrs by annexin V/propidium iodide staining-based flow cytometric analysis relative to control. Type of experiment: functional, cell-based.
The test system of experiment [4] is HepG2. Briefly: Induction of apoptosis in human HepG2 cells assessed as ratio of Bcl2/Bax at 0.3125 uM after 72 hrs by western blot analysis. Format: functional.
Experiment [5] has as its system HepG2. Briefly: Induction of apoptosis in human HepG2 cells assessed as ratio of Bcl2/Bax at 0.625 uM after 72 hrs by western blot analysis. Format: functional.
Experiment [6] relates to HepG2. Put plainly: Induction of apoptosis in human HepG2 cells assessed as ratio of Bcl2/Bax at 1.25 uM after 72 hrs by western blot analysis. Format: functional.
In experiment [7] the test system is HepG2. Briefly: Cell cycle arrest in human HepG2 cells at 0.3125 to 1.25 uM by propidium iodide staining based flow cytometric analysis. Type of experiment: functional. As to conditions: TDE = time-dependent effect.
Experiment [8] concerns HepG2. Put plainly: Cell cycle arrest in human HepG2 cells after 24 hrs by propidium iodide staining based flow cytometric analysis. Type of experiment: functional.
Experiment [9] concerns HepG2. Put plainly: Cell cycle arrest in human HepG2 cells assessed as accumulation at S phase at 0.3125 to 1.25 uM by propidium iodide staining based flow cytometric analysis. Type of experiment: functional.

For the compound `CC(C)=CCC/C(C)=C/Cc1c(O)c(CC=C(C)C)c2c(c1O)C(=O)C1=C[C@@H]3C[C@H]4C(C)(C)O[C@@](C/C=C(/C)C(=O)OCCCCN5CCN(CCO)CC5)(C3=O)[C@@]14O2`, the pIC50 is 5.02 in the experiment with A549, 6.24 with HepG2 [1], 6.10 in [2] and 5.84 in the experiment with U-251.

As for `CC(C)=CCC/C(C)=C/Cc1c(O)c(CC=C(C)C)c2c(c1O)C(=O)C1=C[C@H]3C[C@H]4C(C)(C)O[C@](C/C=C(/C)C(=O)OCCN5CCOCC5)(C3=O)[C@]14O2`, the pIC50 is 5.37 with A549, 5.20 with HepG2 [1], 5.72 in experiment [2] and 5.31 in the experiment on U-251.

As to `CC(C)=CCC/C(C)=C/Cc1c(O)c(CC=C(C)C)c2c(c1O)C(=O)C1=C[C@H]3C[C@H]4C(C)(C)O[C@](C/C=C(/C)C(=O)OCCN5CCCCC5)(C3=O)[C@]14O2`, the pIC50 in the experiment on A549 was 5.81; in the experiment on HepG2 [1], 6.01; in experiment [2], 5.72; with U-251 it was 5.31.

In the case of `CC(C)=CCC/C(C)=C/Cc1c(O)c(CC=C(C)C)c2c(c1O)C(=O)C1=C[C@@H]3C[C@@H]4C(C)(C)O[C@@](C/C=C(/C)C(=O)OCCCN5CCN(C)CC5)(C3=O)[C@@]14O2`, the outcome in the experiment with HepG2 [3] and with HepG2 [9] was Active. The pIC50 in the experiment on A549 was 5.78; in the experiment on HepG2 [1] it was 6.01; in [2], 6.35; in the experiment with U-251, 5.95. The Activity entry in the experiment with HepG2 [1] was “Dose-dependent effect”; in the experiment on HepG2 [7], “tde”; in the experiment on HepG2 [8], “Dose-dependent effect”. Besides, the figures for the Ratio with HepG2 [4], in the experiment with HepG2 [5] and in the experiment on HepG2 [6] were 0.598, 0.478 and 0.251, respectively.

Consider `CCN(CC)CCOC(=O)/C(C)=C\C[C@@]12OC(C)(C)[C@H]3C[C@@H](C=C4C(=O)c5c(O)c(C/C=C(\C)CCC=C(C)C)c(O)c(CC=C(C)C)c5O[C@]431)C2=O`, for which the pIC50 with A549 was 5.85; with HepG2 [1], 5.71; in experiment [2], 5.54; with U-251, 5.58.

Take `CCN(CC)CCCOC(=O)/C(C)=C\C[C@@]12OC(C)(C)[C@H]3C[C@@H](C=C4C(=O)c5c(O)c(C/C=C(\C)CCC=C(C)C)c(O)c(CC=C(C)C)c5O[C@]431)C2=O`: the negative logarithm of the IC50 (pIC50) with A549 was 5.53; in the experiment on HepG2 [1] it was 5.58; in experiment [2], 5.55; in the experiment with U-251 it was 5.69.

For the compound `CC(C)=CCC/C(C)=C/Cc1c(O)c(CC=C(C)C)c2c(c1O)C(=O)C1=C[C@@H]3C[C@@H]4C(C)(C)O[C@@](C/C=C(/C)C(=O)OCCCCN5CCN(C)CC5)(C3=O)[C@@]14O2`, the pIC50 with A549 is 5.49; in the experiment with HepG2 [1], 4.96; in experiment [2], 5.12; in the experiment on U-251, 4.76.

Turning to `CC(C)=CCC/C(C)=C/Cc1c(O)c(CC=C(C)C)c2c(c1O)C(=O)C1=C[C@H]3C[C@H]4C(C)(C)O[C@](C/C=C(/C)C(=O)OCCCN5CCN(CCO)CC5)(C3=O)[C@]14O2`, the pIC50 was 5.82 with A549, 5.56 in the experiment on HepG2 [1], 5.60 in experiment [2] and 5.93 in the experiment on U-251.

Consider `CCN(CC)CCCCOC(=O)/C(C)=C\C[C@]12OC(C)(C)[C@@H]3C[C@H](C=C4C(=O)c5c(O)c(C/C=C(\C)CCC=C(C)C)c(O)c(CC=C(C)C)c5O[C@@]431)C2=O`, for which the pIC50 with A549 was 5.50; with HepG2 [1] it was 5.62; in experiment [2] it was 5.74; with U-251 it was 5.34.

`CC(C)=CCC/C(C)=C/Cc1c(O)c(CC=C(C)C)c2c(c1O)C(=O)C1=C[C@@H]3C[C@@H]4C(C)(C)O[C@@](C/C=C(/C)C(=O)OCCCCN5CCOCC5)(C3=O)[C@@]14O2`: the pIC50 in the experiment on A549 is 5.50; with HepG2 [1], 4.84; in experiment [2], 4.73; in the experiment on U-251, 4.67.

Take `CC(C)=CCC/C(C)=C/Cc1c(O)c(CC=C(C)C)c2c(c1O)C(=O)C1=C[C@@H]3C[C@@H]4C(C)(C)O[C@@](C/C=C(/C)C(=O)OCCN5CCN(C)CC5)(C3=O)[C@@]14O2`: the pIC50 with A549 is 5.79; in the experiment with HepG2 [1], 5.55; in experiment [2] it was 5.58; in the experiment on U-251, 5.46.

Take `CC(C)=CCC/C(C)=C/Cc1c(O)c(CC=C(C)C)c2c(c1O)C(=O)C1=C[C@H]3C[C@H]4C(C)(C)O[C@](C/C=C(/C)C(=O)OCCCN5CCCCC5)(C3=O)[C@]14O2`: the pIC50 was 5.60 in the experiment with A549, 5.44 in the experiment with HepG2 [1], 5.33 in experiment [2] and 5.05 in the experiment with U-251.

Regarding `CC(C)=CCC/C(C)=C/Cc1c(O)c(CC=C(C)C)c2c(c1O)C(=O)C1=C[C@@H]3C[C@@H]4C(C)(C)O[C@@](C/C=C(/C)C(=O)OCCCCN5CCCCC5)(C3=O)[C@@]14O2`, the pIC50 in the experiment on A549 was 5.46; with HepG2 [1], 5.41; in experiment [2] it was 5.35; in the experiment with U-251 it was 5.56.

`CC(C)=CCC/C(C)=C/Cc1c(O)c(CC=C(C)C)c2c(c1O)C(=O)C1=C[C@H]3C[C@H]4C(C)(C)O[C@](C/C=C(/C)C(=O)OCCCN5CCOCC5)(C3=O)[C@]14O2`: the pIC50 is 5.89 in the experiment with A549, 5.24 in the experiment with HepG2 [1], 5.63 in experiment [2] and 5.48 in the experiment on U-251.

Turning to `CC(C)=CCC/C(C)=C/Cc1c(O)c(CC=C(C)C)c2c(c1O)C(=O)C1=C[C@@H]3C[C@H]4C(C)(C)O[C@@](C/C=C(/C)C(=O)O)(C3=O)[C@@]14O2` [GAMBOGENIC ACID], the negative-log IC50 (pIC50) in the experiment with A549 was 5.46; in the experiment on HepG2 [1], 5.49; in experiment [2] it was 5.38; with U-251, 5.49.

As to `CC(C)=CCC/C(C)=C/Cc1c(O)c(CC=C(C)C)c2c(c1O)C(=O)C1=C[C@@H]3C[C@H]4C(C)(C)O[C@@](C/C=C(/C)C(=O)OCCN5CCN(CCO)CC5)(C3=O)[C@@]14O2`, the pIC50 was 5.61 in the experiment with A549, 5.41 in the experiment with HepG2 [1], 5.60 in [2] and 5.42 with U-251.
